Reference: the NIST ThermoML archive (doi:10.1021/je400408w)

Test: molar heat capacity at constant pressure; xn = mol fraction of the nth substance listed
Conditions: 100 kPa, Liquid

Cc1cccc(Cl)c1 [3-chlorotoluene] + CN1CCCC1=O
molar heat capacity at constant pressure [J/K/mol]
Conditions	293.15 K	298.15 K	303.15 K
x2 = 0	175.21	176.46	177.67
x2 = 0.0566	176.9	178.51	180.44
x2 = 0.0976	178.07	179.91	182.2
x2 = 0.1345	179.19	181.07	183.53
x2 = 0.1724	180.12	182.1	184.76
x2 = 0.2187	181.31	183.26	186.04
x2 = 0.2565	182.12	184.06	186.9
x2 = 0.2934	182.85	184.82	187.61
x2 = 0.3342	183.56	185.46	188.27
x2 = 0.3745	184.2	185.98	188.79
x2 = 0.4187	184.71	186.4	189.2
x2 = 0.4568	184.96	186.73	189.36
x2 = 0.4986	185.09	186.84	189.47
x2 = 0.5386	185.06	186.75	189.31
x2 = 0.5783	184.78	186.58	189.08
x2 = 0.6112	184.42	186.25	188.68
x2 = 0.6542	183.69	185.54	187.92
x2 = 0.6923	182.87	184.66	187.08
x2 = 0.7328	181.83	183.55	185.83
x2 = 0.7786	179.95	181.8	183.95
x2 = 0.8189	178.11	180	182.01
x2 = 0.8324	177.43	179.29	181.17
x2 = 0.8621	175.85	177.56	179.36
x2 = 0.9078	172.92	174.43	175.98
x2 = 0.9427	170.28	171.62	172.92

Cc1cccc(Cl)c1 [3-chlorotoluene] + O=C1CCCN1
molar heat capacity at constant pressure [J/K/mol]
Conditions	293.15 K	298.15 K	303.15 K
x2 = 0	175.21	176.46	177.67
x2 = 0.0398	175.59	176.89	178.18
x2 = 0.0798	176.05	177.3	178.65
x2 = 0.1089	176.37	177.6	179.06
x2 = 0.1443	176.74	178.08	179.55
x2 = 0.1853	177.1	178.48	179.99
x2 = 0.2234	177.49	178.84	180.42
x2 = 0.2613	177.74	179.25	180.77
x2 = 0.3095	178.12	179.52	181.15
x2 = 0.3452	178.21	179.69	181.37
x2 = 0.3865	178.3	179.9	181.5
x2 = 0.4432	178.35	179.92	181.58
x2 = 0.4836	178.22	179.73	181.43
x2 = 0.5213	177.98	179.53	181.21
x2 = 0.5643	177.56	179.17	180.87
x2 = 0.6074	177.17	178.68	180.45
x2 = 0.6408	176.64	178.24	179.95
x2 = 0.6853	175.94	177.56	179.23
x2 = 0.7214	175.28	176.81	178.55
x2 = 0.7654	174.4	175.89	177.62
x2 = 0.8069	173.44	174.91	176.65
x2 = 0.8453	172.56	173.94	175.71
x2 = 0.8812	171.61	172.99	174.68
x2 = 0.9203	170.57	171.93	173.57
x2 = 0.9564	169.6	170.88	172.55
